Like-named read-outs stand apart in the source and are kept apart here.
How the values were obtained:
Type in all cases: cell-based
[1] = tested on: P. falciparum; assay: Inhibition of growth of P. falciparum in red cell culture (tritiated hypoxanthine uptake, continuous exposure to chelator); conditions: for minimal effective concentration: Plasmodium falciparum, further study, method not detailed, read-out: dosage level at which marked growth inhibition was observed; for level of activity against red blood cells parasitized by P. falciparum (relative ranking): comparison between compounds, no figures; for growth inhibition of P. falciparum: 50 µmol/l iron binding concentration, after 30 hours, Figure 2; for percentage inhibition of growth after 30 hours as compared with the controls: iron binding concentration of 100 µmol of iron per litre, Figure 1
Description: (A) An uncloned strain of P. falciparum, ITO4, was grown on blood group O red cells using a modification of the method described by Trager et al in Science, 1976, […], 673. An atmopshere consisting of 1% oxygen, 3% carbon dioxide and 96% nitrogen was maintained throughout the experiments. Red cells were suspended at a hematocrit of 3% in RPMI 1640 that had been supplemented with 10% v/v human serum, 2 g/l glucose, 4 mM NaOH, 25 µg/ml gentamicin, 1.9 mM glutamine and 25 mM HEPES to form complete medium. For experimental purposes the red cells were then further diluted with the same medium to a final hematocrit of 1.5%. Synchronised parasite cultures were obtained using a combination of sorbitol lysis and gelatin flotation, as described respectively by Jensen et al in Am. J. Trop. Med. Hyg., 1978, 27, 1274 and Lambros et al in J. Parasitol., 1979, 65, 418, thus ensuring that only young ring forms remained. The starting parasitemia in each experiment was between 0.1 and 0.5%.
A red cell suspension containing only recently synchronised ring parasites was treated with 0.2 µCi of tritiated hypoxanthine per 100 µl of red cell suspension and one of ten chelating agents as identified in the Table was added in complete medium to the suspension in an amount such as to produce an iron binding concentration of 100 µmol of iron per litre (all of the chelators combine with iron in a ratio of 3 moles of chelator:1 mole of iron apart from the chelator number 10, desferrioxamine, which combines in a 1:1 molar ratio). The test cultures were immediately dispersed in 200 µl aliquots into 96 well microculture plates. Each chelator was tested in three or more wells and the whole experiment was carried out at least twice for each chelator. Control cultures were used in each experiment which contained no iron chelator.
The growth of the P. falciparum parasites was assessed both by light microscopy examination of thin films that had been stained with Giemsa and through measurement of tritiated hypoxanthine uptake, the cell cultures being harvested onto glass fibre filters and radioactivity, in terms of beta emission from each well, being measured in a flat bed liquid scintillation counter as described by Potter et al in Phys. Med. Biol., 1986, 31(4), 361.
The chelators tested consisted of 1-(2′-carboxyethyl)-3-hydroxy-2-methylpyridin-4-one (R₁ = CH₂CH₂CO₂H, R₂ = CH₃, R₃ = R₄ = H; compound 1) and, for the purposes of comparison with this chelator, nine other chelators not of formula (I) as defined hereinbefore, of which compounds 2 to 9 are 3-hydroxypyridin-4-ones and compound 10 is desferrioxamine. […] These findings were supported by a morphological examination of red cells sampled from the cultures. […] (B) The effect of using different dosage levels than the 100 µmol/l level used in (A) was studied employing the same procedure but using four dosage levels of 10 µmol/l, 25 µmol/l, 50 µmol/l and […]. Only the eight chelators which produced an inhibitory effect at 100 µmol/l were studied and controls containing no iron chelator were again employed.

[2] = tested on: P. falciparum; assay: 6 hour pulse exposure at different stages of the first parasite cycle, growth by tritiated hypoxanthine uptake; design: dose or concentration left out as unconfirmed; conditions: Plasmodium falciparum
Description: In the case of 2-carboxymethyl-3-hydroxy-1-methylpyridin-4-one, 1-(2-carboxyethyl)-2-ethyl-3-hydroxypyridin-4-one and 1-(3-carboxypropyl)-2-methyl-3-hydroxypyridin-4-one a dosage level of 0.5 µmol/l was required to produce a similar level of growth inhibition and in the case of 3-hydroxy-2-methyl-1-(2-sulphoethyl)pyridin-4-one a dosage level of 1 µmol/l was required. (C) A culture of ring parasites obtained as in (A) was dispensed in 3 ml volumes into separate flasks. Different cultures were exposed during a 6 hour period to the compound 1 in a 100 µmol/l iron binding concentration at different stages during the first parasite cycle and controls containing no chelator were again employed. At the end of each 6 hour pulse, all cultures were washed twice in RPMI 1640 and the pellet was resuspended in complete medium. At 40 hours, when cells from cultures that had not been exposed at any time to a chelator contained segmenting schizonts, tritiated hypoxanthine was added to the incubation medium of all the cultures. Growth of the parasites was assessed after further periods of 42 hours (during second cycle), 65 hours (during third cycle) and 84 hours (during fourth cycle). Each pulse of compound 1 was duplicated in separate flasks. Morphologically, synchrony of the cultures was clearly lost during the third parasite cycle.
Furthermore, no morphological differences were detected between parasites that were sampled from these cultures and untreated parasites. On the other hand, incubation with compound 1 during the schizont stage (24-30 hours) of parasite development did produce an inhibitory effect on the growth of P. falciparum resulting in 38% and 30% growth inhibition during the second and third cycles. Morphologically these cultures contained a mixed population of degenerate forms and young ring parasites with evidence of red cell reinvasion. Thus it will be seen that the effect of compound 1 is maximised during the early schizont stage of the development of the parasite. However, the employment of 6 hour pulses in order to compare the effects of the compound at different stages, as opposed to the continuous treatment employed in (A), did lead to a lower level of anti-malarial effect.

[3] = tested on: MEL cells, clone 585; assay: Inhibition of growth of murine erythroleukaemia (MEL) cells, cell counting; conditions: 50 µmol/l iron binding concentration; after 30 hours; Figure 2
Description: MEL cells, clone 585, were grown in suspension culture at 37°C in RPMI 1640 that had been supplemented with 13% v/v foetal calf serum, 25 µl/ml gentamicin, 1.9 mM glutamine and 2% diaminopurine as described by Peto et al in Br. J. Haematol., 1983, 54, 623. The cultures were maintained in an atmosphere containing 5% carbon dioxide and passaged every 3-4 days at a seeding concentration of 1-2 x 10⁴/ml to ensure that the cells were continually in logarithmic growth phase. Under these conditions, the doubling time for cell growth was 30-36 hours.
10 ml volumes of cell suspension were incubated in 50 ml flasks with each of the ten chelators identified in the Table at a 50 µmol/l iron binding concentration, controls being employed which contained no chelator. 400 µl aliquots were removed in duplicate for growth assessment at 24 hour intervals over the next four days. The experiment was repeated on three separate occasions, the initial cell concentration in each case being 2-3 x 10⁴ cells/ml. Cell growth was assessed both by examination of cultures using light microscopy and by cell counting. At various times throughout each experiment, 400 µl culture was added to 19.6 ml Isoton and the number of particles counted using a Coulter Counter ZN set at threshold 20 and attenuation 0.4
The effect of the different chelators on growth of the MEL cells after 30 hours was compared with the effect produced after a similar time by the same chelators at a 50 µmol/l iron binding concentration using the procedure described in Example 2(A). The results are illustrated in Figure 2. It will be seen that the compounds 2, 3, 4, 5, 6, 9 and 10 inhibited growth of MEL cells and of P. falciparum, the minimum growth inhibition being 80% and 70% respectively. […] When these two groups of chelators were examined together a close linear correlation (r = 0.978) was found between the degree of growth inhibition produced in both types of cell for each chelator studied. The compound 1 was distinguished from all of the other chelators in being the only one to have no significant inhibitory effect on the growth of MEL cells (<10%) whilst at the same time producing a substantial inhibitory effect on the growth of P. falciparum (>75%).

## Cc1c(O)c(=O)ccn1CCS(=O)(=O)O [3-hydroxy-2-methyl-1-(2-sulphoethyl)-pyridin-4-one]
[1]
  minimal effective concentration: 1 µM

## Cn1ccc(=O)c(O)c1CC(=O)O [(5), 2-carboxymethyl-3-hydroxy-1-methylpyridin-4-one]
[1]
  minimal effective concentration: 0.5 µM

## CCc1c(O)c(=O)ccn1CCC(=O)O [(12), 1-(2-carboxyethyl)-2-ethyl-3-hydroxypyridin-4-one]
[1]
  minimal effective concentration: 0.5 µM
  level of activity against red blood cells parasitized by P. falciparum (relative ranking): higher level of activity than compound (9)

## Cc1c(O)c(=O)ccn1CCCC(=O)O [(16), 1-(3-carboxypropyl)-2-methyl-3-hydroxypyridin-4-one]
[1]
  minimal effective concentration: 0.5 µM
  level of activity against red blood cells parasitized by P. falciparum (relative ranking): higher level of activity than compound (9)

## Cc1c(O)c(=O)ccn1CCC(=O)O [compound 1, 1-(2-carboxyethyl)-3-hydroxy-2-methylpyridin-4-one]
[1]
  growth inhibition of P. falciparum: > 75%
  minimal effective concentration: 0.1 µM
  level of activity against red blood cells parasitized by P. falciparum (relative ranking): higher level of activity against red blood cells parasitized by P. falciparum than compounds (12) and (16)
  percentage inhibition of growth after 30 hours as compared with the controls: more than 65%
[2]; 6 hour pulse at 6-12 hours of first cycle, read-out: growth inhibition during the third cycle
  inhibition: 0%
[2]; 6 hour pulse at 12-18 hours of first cycle, read-out: growth inhibition during the second cycle
  inhibition: 11.4%
[2]; 6 hour pulse at 12-18 hours of first cycle, read-out: growth inhibition during the third cycle
  inhibition: 12%
[2]; 6 hour pulse at 18-24 hours of first cycle, read-out: growth inhibition during the second cycle
  inhibition: 0%
[2]; 6 hour pulse at 18-24 hours of first cycle, read-out: growth inhibition during the third cycle
  inhibition: 0%
[2]; 6 hour pulse during the schizont stage (24-30 hours), read-out: growth inhibition during the second cycle
  inhibition: 38%
[2]; 6 hour pulse during the schizont stage (24-30 hours), read-out: growth inhibition during the third cycle
  inhibition: 30%
[3]
  growth inhibition of MEL cells: < 10%

## Cc1c(O)c(=O)ccn1C [compound 2, 3-hydroxy-1,2-dimethylpyridin-4-one]
[1]
  growth inhibition of P. falciparum: ≥ 70%
  percentage inhibition of growth after 30 hours as compared with the controls: more than 65%
[3]
  growth inhibition of MEL cells: ≥ 80%

## CC1=NC=CC(=O)C1O (stereo not shown) [compound 3, 3-hydroxy-2-methylpyridin-4-one]
[1]
  growth inhibition of P. falciparum: ≥ 70%
  percentage inhibition of growth after 30 hours as compared with the controls: more than 65%
[3]
  growth inhibition of MEL cells: ≥ 80%

## Cc1c(O)c(=O)ccn1CCO [compound 4, 3-hydroxy-1-(2-hydroxyethyl)-2-methylpyridin-4-one]
[1]
  growth inhibition of P. falciparum: ≥ 70%
  percentage inhibition of growth after 30 hours as compared with the controls: more than 65%
[3]
  growth inhibition of MEL cells: ≥ 80%

## Cc1c(O)c(=O)ccn1CCN.Cl [compound 5, 1-(2-aminoethyl)-3-hydroxy-2-methylpyridin-4-one hydrochloride]
[1]
  growth inhibition of P. falciparum: ≥ 70%
  percentage inhibition of growth after 30 hours as compared with the controls: more than 65%
[3]
  growth inhibition of MEL cells: ≥ 80%

## COCCn1ccc(=O)c(O)c1C [compound 6, 3-hydroxy-1-(2-methoxyethyl)-2-methylpyridin-4-one]
[1]
  growth inhibition of P. falciparum: ≥ 70%
  percentage inhibition of growth after 30 hours as compared with the controls: more than 65%
[3]
  growth inhibition of MEL cells: ≥ 80%

## Cc1c(O)c(=O)ccn1CCCCCC(=O)O [compound 7, 1-(5-carboxypentyl)-3-hydroxy-2-methylpyridin-4-one]
[1]
  growth inhibition of P. falciparum: little inhibitory effect
  percentage inhibition of growth after 30 hours as compared with the controls: less than 12%
[3]
  growth inhibition of MEL cells: little inhibitory effect

## Cc1c(O)c(=O)ccn1CCCCCC(=O)NCCC(=O)O [compound 8, 1-(5-(N-(2-carboxyethyl)-carbamoyl)pentyl)-3-hydroxy-2-methylpyridin-4-one]
[1]
  growth inhibition of P. falciparum: little inhibitory effect
  percentage inhibition of growth after 30 hours as compared with the controls: less than 12%
[3]
  growth inhibition of MEL cells: little inhibitory effect

## CCc1c(O)c(=O)ccn1C [compound 9, 2-ethyl-3-hydroxy-1-methyl-pyridin-4-one]
[1]
  growth inhibition of P. falciparum: ≥ 70%
  percentage inhibition of growth after 30 hours as compared with the controls: more than 65%
[3]
  growth inhibition of MEL cells: ≥ 80%

## Cc1c(O)c(=O)ccn1CC(=O)O [compound (9), 1-carboxymethyl-3-hydroxy-2-methylpyridin-4-one]
[1]
  level of activity against red blood cells parasitized by P. falciparum (relative ranking): somewhat greater than that of the compound 3-hydroxy-2-methyl-1-(2-sulphoethyl)pyridin-4-one

Reference: patent publication EP0494754A1, “3-hydroxypyridin-4-one derivatives as pharmaceutical compositions” (BRITISH TECHNOLOGY GROUP LTD, priority 1991, dated 1992)
